How the values were obtained:
[1] = target: NRAS WT binding to BRAF RBD (Homo sapiens (Human), UniProt P01111+P62937); assay: Ras-Raf disruption/FRET/MOA assay, NRAS WT; assay type: biochemical
Excerpt: (§1) Disruption of B-Raf Ras-binding Domain (BRAF^RBD) Interaction with K-Ras by Compounds of the Invention (also called a FRET assay or an MOA assay)
(§2) Note—The following protocol describes a procedure for monitoring disruption of K-Ras G12C(GMP-PNP) binding to BRAF^RBD by a compound of the invention. This protocol may also be executed substituting other Ras proteins or nucleotides.
(§3) The purpose of this biochemical assay was to measure the ability of test compounds to facilitate ternary complex formation between a nucleotide-loaded K-Ras isoform and Cyclophilin A; the resulting ternary complex disrupts binding to a BRAF^RBD construct, inhibiting K-Ras signaling through a RAF effector. Data is reported as IC50 values.
(§4) In assay buffer containing 25 mM HEPES pH 7.3, 0.002% Tween20, 0.1% BSA, 100 mM NaCl and 5 mM MgCl2, tagless Cyclophilin A, His6-K-Ras-GMPPNP, and GST-BRAF^RBD were combined in a 384-well assay plate at final concentrations of 25 μM, 12.5 nM and 50 nM, respectively. Compound was present in plate wells as a 10-point 3-fold dilution series starting at a final concentration of 30 μM. After incubation at 25° C. for 3 hours, a mixture of Anti-His Eu—W1024 and anti-GST allophycocyanin was then added to assay sample wells at final concentrations of 10 nM and 50 nM, respectively, and the reaction incubated for an additional 1.5 hours. […] Compounds that facilitate disruption of a K-Ras: RAF complex were identified as those eliciting a decrease in the TR-FRET ratio relative to DMSO control wells.

[2] = target: K-Ras G12C(GMP-PNP) binding to BRAF RBD (Homo sapiens (Human), UniProt P01116+P62937, G12C); assay: Disruption of BRAF RBD interaction with K-Ras (FRET / MOA assay), K-Ras G12C; assay type: biochemical; conditions: read-out: KRAS G12C FRET IC50
Chain of K-Ras G12C(GMP-PNP) binding to BRAF RBD (P01116 other isoform, or with tags, fused parts or gaps G12C): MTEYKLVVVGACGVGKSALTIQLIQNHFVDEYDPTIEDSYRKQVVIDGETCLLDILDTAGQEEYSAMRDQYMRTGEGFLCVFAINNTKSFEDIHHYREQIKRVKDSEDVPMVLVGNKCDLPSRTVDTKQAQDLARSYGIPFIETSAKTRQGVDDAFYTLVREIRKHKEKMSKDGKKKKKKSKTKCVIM
Chain of K-Ras G12C(GMP-PNP) binding to BRAF RBD (P62937 whole entry): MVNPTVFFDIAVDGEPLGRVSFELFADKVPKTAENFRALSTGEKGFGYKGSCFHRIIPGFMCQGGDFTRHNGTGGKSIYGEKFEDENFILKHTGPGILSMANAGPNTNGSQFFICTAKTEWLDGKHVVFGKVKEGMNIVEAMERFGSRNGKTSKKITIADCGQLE
Procedure, shortened: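 First, test compounds in a 10-point 3-fold series (30 μM final top) were incubated for 3 hours at 25° C with nucleotide-loaded Ras, cyclophilin A and a BRAF RBD construct. Next, Eu anti-His and allophycocyanin anti-GST detection reagents were added for 1.5 hours. Finally, IC50s were derived from loss of TR-FRET signal against DMSO.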

NCI-H358 (K-Ras G12C) = assay: CellTiter-Glo cell viability assay, NCI-H358; assay type: cell-based, human; conditions: Homo sapiens, NCI-H358, 120 h, 5-day treatment; read-out: H358 Cell Viability assay data (K-Ras G12C, IC50)
Procedure, shortened: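 NCI-H358 cells were treated with test compounds dispensed directly into the assay wells and incubated until day 5. Viability was then read by CellTiter-Glo luminescence after a ~30 min room-temperature equilibration, normalized to the DMSO average (×100), and fit with a four-parameter logistic curve.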

[3] = target: KRAS G13D binding to BRAF RBD (Homo sapiens (Human), UniProt P01116+P62937, G13D); assay: Ras-Raf disruption/FRET/MOA assay, KRAS G13D; assay type: biochemical
Chain of KRAS G13D binding to BRAF RBD (P01116 other isoform, or with tags, fused parts or gaps G13D): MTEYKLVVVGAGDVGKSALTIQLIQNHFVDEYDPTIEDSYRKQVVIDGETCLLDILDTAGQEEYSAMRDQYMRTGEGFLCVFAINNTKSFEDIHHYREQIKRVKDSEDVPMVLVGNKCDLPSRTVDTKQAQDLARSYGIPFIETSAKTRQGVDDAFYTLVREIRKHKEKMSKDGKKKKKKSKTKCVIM
Chain of KRAS G13D binding to BRAF RBD (P62937 whole entry): as the sequence (P62937 whole entry) above
Procedure, shortened: (§5)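 TR-FRET ratio drop relative to DMSO wells marks disruption of the Ras–RAF complex, reported as IC50. Compounds promote a Ras(nucleotide)–cyclophilin A ternary complex that blocks BRAF RBD binding; dosing was 10 points, 3-fold, top 30 μM final, 3 h at 25° C before detection.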

[4] = target: NRAS Q61K binding to BRAF RBD (Homo sapiens (Human), UniProt P01111+P62937, Q61K); assay: Ras-Raf disruption/FRET/MOA assay, NRAS Q61K; assay type: biochemical
Chain of NRAS Q61K binding to BRAF RBD (P01111 whole entry Q61K): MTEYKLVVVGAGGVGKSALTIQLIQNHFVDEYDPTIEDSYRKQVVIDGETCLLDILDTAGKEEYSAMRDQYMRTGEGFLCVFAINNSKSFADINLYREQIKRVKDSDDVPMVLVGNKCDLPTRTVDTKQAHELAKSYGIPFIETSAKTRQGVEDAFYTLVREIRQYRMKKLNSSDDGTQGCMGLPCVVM
Chain of NRAS Q61K binding to BRAF RBD (P62937 whole entry): as the sequence (P62937 whole entry) above
Excerpt: as §1, §2, §3, §4

[5] = target: NRAS Q61R binding to BRAF RBD (Homo sapiens (Human), UniProt P01111+P62937, Q61R); assay: Ras-Raf disruption/FRET/MOA assay, NRAS Q61R; assay type: biochemical
Chain of NRAS Q61R binding to BRAF RBD (P01111 whole entry Q61R): as the sequence (P01111 whole entry Q61K) above, with K61R counted along it
Chain of NRAS Q61R binding to BRAF RBD (P62937 whole entry): as the sequence (P62937 whole entry) above
Excerpt: as §1, §2, §3, §4

[6] = target: NRAS G12C binding to BRAF RBD (Homo sapiens (Human), UniProt P01111+P62937, G12C); assay: Ras-Raf disruption/FRET/MOA assay, NRAS G12C; assay type: biochemical
Chain of NRAS G12C binding to BRAF RBD (P01111 whole entry G12C): as the sequence (P01111 whole entry Q61K) above, with G12C, K61Q counted along it
Chain of NRAS G12C binding to BRAF RBD (P62937 whole entry): as the sequence (P62937 whole entry) above
Procedure, shortened: as §5

[7] = system: K-Ras G12C (NCI-H358 cells); assay: Potency assay: pERK in NCI-H358 cells; assay type: cell-based, human; conditions: Homo sapiens; NCI-H358 cells, 4 hours; read-out: pERK EC50 (H358 KRAS G12C)
Procedure, shortened: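 Cells plated the day before were exposed for 4 h at 37° C, 5% CO2 to a 10-point, 3-fold DMSO dilution series (10 mM top stock), in duplicate. Phospho-ERK was read by AlphaLISA SureFire Ultra or by In-Cell Western with DRAQ5 DNA stain, and IC50 came from a 4-parameter sigmoidal fit.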

[8] = target: KRAS Q61H binding to BRAF RBD (Homo sapiens (Human), UniProt P01116+P62937, Q61H); assay: Ras-Raf disruption/FRET/MOA assay, KRAS Q61H; assay type: biochemical
Chain of KRAS Q61H binding to BRAF RBD (P01116 other isoform, or with tags, fused parts or gaps Q61H): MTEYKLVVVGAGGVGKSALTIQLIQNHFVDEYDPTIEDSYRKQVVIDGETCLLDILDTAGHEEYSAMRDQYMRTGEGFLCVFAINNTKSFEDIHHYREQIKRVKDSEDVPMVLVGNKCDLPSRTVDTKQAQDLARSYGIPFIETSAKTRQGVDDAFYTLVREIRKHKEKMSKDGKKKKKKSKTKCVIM
Chain of KRAS Q61H binding to BRAF RBD (P62937 whole entry): as the sequence (P62937 whole entry) above
Excerpt: as §1, §2, §3, §4

Chain of NRAS WT binding to BRAF RBD (P01111 whole entry, the tested form may be a part): as the sequence (P01111 whole entry Q61K) above, with K61Q counted along it
Chain of NRAS WT binding to BRAF RBD (P62937 whole entry, the tested form may be a part): as the sequence (P62937 whole entry) above

SMILES	IC50 [1]	IC50 [2]	IC50 (NCI-H358 (K-Ras G12C))	IC50 [3]	IC50 [4]	IC50 [5]	IC50 [6]	EC50 [7]	IC50 [8]
C=CC(=O)N1CC[C@H](C(=O)N(C)[C@H](C(=O)N[C@H]2Cc3cccc(c3)-c3ccc4c(c3)c(c(-c3cccnc3[C@H](C)OC)n4CC)CC(C)(C)COC(=O)[C@@H]3CCCN(N3)C2=O)[C@H](C)C(F)(F)F)C1 (atropisomer, axis not shown) [Compound A641]	1000 to 10000 nM	100 to 1000 nM	10 to 100 nM	1000 to 10000 nM	1000 to 10000 nM	1000 to 10000 nM	100 to 1000 nM	< 5000 nM	1000 to 10000 nM
CCn1c(-c2cccnc2[C@H](C)OC)c2c3cc(ccc31)-c1cnc(o1)C[C@H](NC(=O)[C@@H](COC1CN(C(=O)C#CC(C)(C)N(C)C)C1)C(C)C)C(=O)N1CCC[C@H](N1)C(=O)OCCC2 (atropisomer, axis not shown) [Compound A649]	> 10000 nM	10 to 100 nM	10 to 100 nM	> 10000 nM	> 10000 nM	> 10000 nM	10 to 100 nM	< 5000 nM	> 10000 nM
CC[C@H](COC1CN(C(=O)C#CC(C)(C)N(C)C)C1)C(=O)N[C@H]1Cc2nc(cs2)-c2ccc3c(c2)c(c(-c2cccnc2[C@H](C)OC)n3CC)CC(C)(C)COC(=O)[C@@H]2CCCN(N2)C1=O (atropisomer, axis not shown) [Compound A660]	100 to 1000 nM	< 10 nM	< 10 nM	1000 to 10000 nM	100 to 1000 nM	1000 to 10000 nM	< 10 nM	< 5000 nM	100 to 1000 nM
CC[C@@H](COC1CN(C(=O)C#CC(C)(C)N(C)C)C1)C(=O)N[C@H]1Cc2nc(cs2)-c2ccc3c(c2)c(c(-c2cccnc2[C@H](C)OC)n3CC)CC(C)(C)COC(=O)[C@@H]2CCCN(N2)C1=O (atropisomer, axis not shown) [Compound A705]	1000 to 10000 nM	< 10 nM	< 10 nM	> 10000 nM	1000 to 10000 nM	> 10000 nM	< 10 nM	< 5000 nM	1000 to 10000 nM
CCn1c(-c2cccnc2[C@H](C)OC)c2c3cc(ccc31)-c1cccc(c1)C[C@H](NC(=O)[C@H](C(C)C)N1CC[C@@]3(CCN(C(=O)C#CC(C)(C)N4CCC4)C3)C1=O)C(=O)N1CCC[C@H](N1)C(=O)OCC(C)(C)C2 (atropisomer, axis not shown) [Compound A733]	> 10000 nM	10 to 100 nM	< 10 nM	> 10000 nM	> 10000 nM	> 10000 nM	10 to 100 nM	< 5000 nM	1000 to 10000 nM
CCn1c(-c2cccnc2[C@H](C)OC)c2c3cc(ccc31)-c1csc(n1)C[C@H](NC(=O)C1(COC3CN(C(=O)C#CC(C)(C)N4CCC4)C3)CC1)C(=O)N1CCC[C@H](N1)C(=O)OCC(C)(C)C2 [Compound A362]	1000 to 10000 nM	10 to 100 nM	10 to 100 nM	> 10000 nM	> 10000 nM	> 10000 nM	10 to 100 nM	–	1000 to 10000 nM
CCn1c(-c2cccnc2[C@H](C)OC)c2c3cc(ccc31)-c1cccc(c1)C[C@H](NC(=O)[C@H](C(C)C)N1CC[C@]3(CCN(C(=O)C#CC(C)(C)N4CCC4)C3)C1=O)C(=O)N1CCC[C@H](N1)C(=O)OCC(C)(C)C2 [Compound A365]	1000 to 10000 nM	< 10 nM	< 10 nM	1000 to 10000 nM	1000 to 10000 nM	1000 to 10000 nM	< 10 nM	–	100 to 1000 nM
C=CC(=O)N(C)CCN1CCN(C(=O)N(C)[C@H](C(=O)N[C@H]2C[n+]3cccc(c3)-c3ccc4c(c3)c(c(-c3cccnc3[C@H](C)OC)n4CC)CC(C)(C)COC(=O)[C@@H]3CCCN(N3)C2=O)C(C)C)CC1 [Compound A539]	100 to 1000 nM	100 to 1000 nM	100 to 1000 nM	1000 to 10000 nM	100 to 1000 nM	100 to 1000 nM	100 to 1000 nM	–	100 to 1000 nM
